Key:
[1] = tested on: hematological tumor cells; experiment: HSC70 vaccine protection against hematological tumor cells in mice; format: in vivo; conditions: mice vaccinated prior to injection of tumor cells versus not vaccinated
lysosomal hydrolases = conditions: cited from earlier work
[2] = tested on: antigen-positive E3 cell line; conditions: read-out: IC50 (cytotoxicities); cited from earlier work
E3 target cells = conditions: read-out: IC50 (selective cytotoxicity); cited from earlier work

With “HSC70: purified full length murine HSC70 protein used as vaccine antigen, may be administered with an adjuvant” as the molecule, how does the tumor size [1] read?
The tumor size was “smaller”.

With Ala-Leu-Dau [Ala-Leu-Dau derivative] as the molecule, how does the “time for conversion back to the free drug by lysosomal hydrolases” value (lysosomal hydrolases) read?
Its value is 2 h.

For O=c1[nH]c(=O)n([C@H]2C[C@H](O)[C@@H](CO)O2)cc1F [FUDR, 5-fluoro-2′-deoxyuridine], which IC50 [2] is on record?
Its IC50 is 0.4 nM.

For CC(=O)[C@]1(O)Cc2c(O)c3c(c(O)c2[C@@H](O[C@H]2C[C@H](N)[C@H](O)[C@H](C)O2)C1)C(=O)c1ccccc1C3=O [Ida, Idarubicin], which IC50 (E3 target cells) is on record?
Its IC50 is 120 nM.

Reference: patent US7226748B2, “HSC70 directed diagnostics and therapeutics for multidrug resistant neoplastic disease” (priority 2003, dated 2007)
